{"source": "patent US11554154B2", "about": "“Polygala extract for the treatment of major depressive disorder” (priority 2020, dated 2023)", "data": [{"test_system": "tetrabenazine-induced hypothermia", "assay": "In vivo tetrabenazine-induced hypothermia test", "settings": "oral gavage 60 minutes before TBZ i.p.; ICR male mice", "procedure": "FIG. 1 depicts in vivo tetrabenazine-induced hypothermia test. Imipramine (positive control), PDC-1421, 1st Fraction 10-19, 1st Fraction 33, 2nd Fraction-1 (the major components are polygalatenosides A/B/C), 2nd Fraction-3, TMCA, Polygalaxanthone III, Onjisaponin B, Sibiricose A5, 7-O-Methylmangiferin and Sibiricaxanthone B are administered as test substances and the temperature recovery (%) is documented as shown in figure. The around 70% of PDC-1421 in Example 1 are composed of sucroester (34%), saponin (18%) and xanthone (17%). Some active compounds of powder product in Example 1, polygalatenosides A/B/C (2nd fraction 1), ploygalaxanthone III, sibiricoses A5, and 7-O-methylmangiferin are also discovered through in vivo tetrabenazine-induced hypothermia test (one of rodent models for evaluating antidepressant-like activity in mice). Imipramine (positive control), PDC-1421, 1st Fraction 10-19, 1st Fraction 33, 2nd Fraction-1 (the major components are polygalatenosides A/B/C), 2nd Fraction-3, TMCA, Polygalaxanthone III, Onjisaponin B, Sibiricose A5, 7-O-Methylmangiferin and Sibiricaxanthone B were dissolved in water for injection (WFI) and administered by oral gavage. The dosing volume was 10 mL/kg. Test substances and vehicle (WFI) were administered by oral gavage to groups of 8 ICR male mice weighing 23±3 g 60 minutes before intraperitoneal injection of tetrabenazine (TBZ, 85 ma/kg). Body temperature was recorded before (0 min), and 60, 90 and 120 min after TBZ challenge.", "values": [{"smiles": "COc1cc2c(=O)c3c(O)c([C@@H]4O[C@H](CO)[C@@H](O)[C@H](O)[C@H]4O)c(O)cc3oc2cc1O", "note": "[7-O-methylmangiferin]", "activity in tetrabenazine-induced hypothermia test (temperature recovery)": "active"}, {"smiles": "COc1cc2c(=O)c3c(O)c([C@@H]4O[C@H](CO[C@@H]5OC[C@](O)(CO)[C@H]5O)[C@@H](O)[C@H](O)[C@H]4O)c(O)cc3oc2cc1O", "note": "[ploygalaxanthone III]", "activity in tetrabenazine-induced hypothermia test (temperature recovery)": "active"}, {"smiles": "COc1cc(/C=C/C(=O)O[C@H]2[C@H](O)[C@@H](CO)O[C@@]2(CO)O[C@H]2O[C@H](CO)[C@@H](O)[C@H](O)[C@H]2O)ccc1O", "note": "[sibiricoses A5]", "activity in tetrabenazine-induced hypothermia test (temperature recovery)": "active"}]}]}
